According to US7576094B2, “Spiro derivatives as lipoxygenase inhibitors” (Eli Lilly and Company, priority 2004, dated 2009):

Experiments:
[1] = system: LTB4 production in human whole blood; assay: Inhibition of LTB4 Production in Blood; assay type: cell-based; settings: 1 h, 20 μM A23187, 60 minutes at 37° C., LTB4 in plasma by ELISA, read-out: protection against LTB4 at an EC50
Procedure: • Human whole blood (Na citrate) (Stanford Blood Center) • A23187, (Sigma, Cat# C-7522) • Leukotriene B4 EIA reagents (Cayman Chemical, Cat # 520111) • BWA4C (Sigma, Cat # B7559) Procedure Preparation of A23187:
A23187 was prepared as a 10 mM stock solution in DMSO (aliquots can be stored at −20° C.). On the day of the assay the stock solution was diluted as follows: 70 μL 10 mM stock added to 1.6 mL plasma to give a working concentration of 0.42 mM.
From a 30 mM stock solution in DMSO, test articles were diluted to a working concentration of 600 μM in PBS (i.e. 10 μL stock solution+490 μL PBS). This is the highest concentration (gives a final testing concentration of 30 μM). From this 600 μM solution test articles were serially diluted 1:3 in PBS to give a dose-response curve. 10 μL of each concentration of test article was then added to 4 wells of a 96-well plate (i.e. testing in quadruplicate). A positive control compound, BWA4C was used in every assay.
Human whole blood was added to the plates containing compounds (190 μL per well) and mixed well. The blood was incubated with compound at 37° C. for 15 minutes. Following this incubation, 10 μL of 0.42 mM A23187 was added to each well except the negative control wells to give a final calcium ionophore concentration of 20 μM. The plates were then incubated at 37° C. for 60 minutes. After the incubation period, plates were centrifuged for 15 min at 2000 g at 4° C. in sealed microplate buckets. Plasma was then removed for quantitation of LTB4 levels by ELISA.
LTB4 levels in the plasma were determined using a commercially available ELISA kit from Cayman Chemicals. The ELISA was run according to the manufacturer's instructions. The LTB4 levels in the vehicle control sample were then compared to those in which the test article had been added. From this a percent inhibition of LTB4 production by each concentration of test article was calculated and the IC50 was determined.

[2] = biological target: T1, human recombinant 5-Lipoxygenase (Homo sapiens, UniProt P09917); assay: 5-Lipoxygenase Enzyme Assay; assay type: biochemical; settings: 70 μM arachidonic acid, 10 minute incubation at room temperature, FOX reagent, absorbance at 620 nm; read-out: inhibition of 5-Lipoxygenase with an IC50
T1 sequence (P09917 1-674): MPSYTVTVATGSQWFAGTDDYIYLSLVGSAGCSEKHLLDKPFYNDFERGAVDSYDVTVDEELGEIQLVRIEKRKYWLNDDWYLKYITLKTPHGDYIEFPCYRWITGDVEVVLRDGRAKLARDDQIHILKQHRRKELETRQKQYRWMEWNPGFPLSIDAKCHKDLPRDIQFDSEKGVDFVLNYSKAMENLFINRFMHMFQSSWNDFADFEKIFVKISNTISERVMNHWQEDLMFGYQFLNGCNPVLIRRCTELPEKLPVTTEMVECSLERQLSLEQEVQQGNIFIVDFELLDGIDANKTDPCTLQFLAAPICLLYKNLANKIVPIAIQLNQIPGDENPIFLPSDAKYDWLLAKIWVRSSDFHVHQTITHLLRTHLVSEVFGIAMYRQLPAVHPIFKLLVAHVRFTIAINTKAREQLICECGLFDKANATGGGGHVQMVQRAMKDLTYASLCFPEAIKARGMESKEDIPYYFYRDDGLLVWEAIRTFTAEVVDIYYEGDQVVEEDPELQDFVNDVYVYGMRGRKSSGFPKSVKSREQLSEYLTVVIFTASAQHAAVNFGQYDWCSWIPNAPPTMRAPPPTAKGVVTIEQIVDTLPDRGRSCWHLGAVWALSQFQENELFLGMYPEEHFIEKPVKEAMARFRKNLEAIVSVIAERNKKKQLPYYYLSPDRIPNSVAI
Description: This procedure was used for measuring the enzymatic activity of human recombinant 5-Lipoxygenase using a colorimetric method based on the ferric oxidation of xylenol orange.
• 96 well flat bottom microfilter plates (VWR, Catalog # 62402-933 9295) • Lipoxygenase screening assay buffer (Cayman, Catalog # 760710) • Human recombinant 5-Lipoxygenase (Cayman, Catalog # 60402) • Arachidonic Acid (Sigma, Catalog # A3555) • Xylenol orange tetra sodium salt (Aldrich, Catalog # 227854) • Iron (II) sulfate heptahydrate (Sigma, Catalog # F7002) • Sulfuric acid (95-98%) [18 M] • Methanol Procedure
Human recombinant 5-Lipoxygenase (Cayman Cat # 60402) was used in this assay. The test compound and/or vehicle was added to 0.5 μL 5-Lipoxygenase in 50 mM Tris-HCl buffer, pH 7.4. The reaction was initiated by addition of 70 μM arachidonic acid in Tris-HCl buffer, pH 7.4, and terminated after a 10 minute incubation at room temperature by addition of FOX reagent (25 mM sulfuric acid, 100 μM xylenol orange, 100 μM iron (II) sulfate, methanol:water 9:1). The yellow color of acidified xylenol orange was converted to a blue color by the lipid hydroperoxide-mediated oxidation of Fe^2+ ions and the interaction of the resulting Fe^3+ ions with the dye. The complex was allowed to form during a 1 hour incubation at room temperature with shaking. Absorbance of the Fe^3+ complex was then measured at […] using a spectrophotometer.
Negative controls contained enzyme during the incubation step but substrate was not added until after the FOX reagent. Compounds were screened at 5 concentrations in triplicate starting at 10 μM

| EC50 [1] | IC50 [2] | SMILES |
| --- | --- | --- |
| < 10 µM | < 0.3 µM | Cc1c(O)cc2c(c1C)N(c1ccc(O)cc1)C1(CC2)CC1 [1′-(4-hydroxyphenyl)-7′,8′-dimethyl-3′,4′-dihydro-1′H-spiro[cyclopropane-1,2′-quinolin]-6′-ol] |
| < 10 µM | < 0.3 µM | Cc1c(O)cc2c(c1C)N(c1ccc(N(C)C)nc1)CC1(CCC1)C2 [1′-(6-(dimethylamino)pyridin-3-yl)-7′,8′-dimethyl-2′,4′-dihydro-1′H-spiro[cyclobutane-1,3′-quinolin]-6′-ol] |
| < 10 µM | < 0.3 µM | Cc1cc2c(c(C)c1O)C=C(c1nc(C)c(C)[nH]1)C1(CCC1)O2 [5,7-dimethyl-3-(-(4,5-dimethyl-1H-imidazol-2-yl)spiro[chromene-2,1′-cyclobutan]-6-ol] |
| < 10 µM | < 0.3 µM | Cc1cc2c(c(C)c1O)CCC1(CCC1)N2Cc1ccc2ccccc2n1 [5′,7′-dimethyl-1′-(quinolin-2-ylmethyl)-3′,4′-dihydro-1′H-spiro[cyclobutane-1,2′-quinolin]-6′-ol] |
| < 10 µM | – | Cc1c(O)c(C(C)C)cc2c1C(O)C1(CCC1)CO2 (stereo not drawn) [7-isopropyl-5-methylspiro[chroman-3,1′-cyclobutane]-4,6-diol] |
| < 10 µM | – | Cc1c(O)c(C)c2c(c1CO)OC1(CCC1)CC2 [8-(hydroxymethyl)-5,7-dimethyl-3,4-dihydrospiro[chromene-2,1′-cyclobutan]-6-ol] |
| < 10 µM | < 0.3 µM | Cc1ccc(S(=O)(=O)NCCN2CC3(CCC3)Cc3cc(O)c(C)c(C)c32)cc1 [N-(2-(6′-hydroxy-7′,8′-dimethyl-2′,4′-dihydro-1′H-spiro[cyclobutane-1,3′-quinoline]-1′-yl)ethyl)-4-methylbenzenesulfonamide] |
| < 10 µM | < 0.3 µM | Cc1ccc(S(=O)(=O)NCCCN2CC3(CCC3)Cc3cc(O)c(C)c(C)c32)cc1 [N-(3-(6′-hydroxy-7′,8′-dimethyl-2′,4′-dihydro-1′H-spiro[cyclobutane-1,3′-quinoline]-1′-yl)propyl)-4-methylbenzenesulfonamide] |
| < 10 µM | < 0.3 µM | Cc1c(O)cc2c(c1C)N(CCCNC(=O)c1ccccc1)CC1(CCC1)C2 [N-(3-(6′-hydroxy-7′,8′-dimethyl-2′,4′-dihydro-1′H-spiro[cyclobutane-1,3′-quinoline]-1′-yl)propyl)benzamide] |

Second part, the molecule before the results:

| SMILES | EC50 [1] | IC50 [2] |
| --- | --- | --- |
| CONCC1Cc2c(cc(C)c(O)c2C)OC12CCC2 (stereo not drawn) [3-[(methoxyamino)methyl]-5,7-dimethyl-3,4-dihydrospiro-[chromene-2,1′-cyclobutan]-6-ol] | < 10 µM | – |
| Cc1c(C)c2c(c(C)c1O)C(N(C)O)CC1(CCC1)O2 (stereo not drawn) [4-[hydroxy(methyl)amino]-5,7,8-trimethyl-3,4-dihydrospiro[chromene-2,1′-cyclobutan]-6-ol] | < 10 µM | < 0.3 µM |
| Cc1cc2c(c(C)c1O)C(N(C)O)CC1(CCC1)O2 (stereo not drawn) [4-[hydroxy(methyl)amino]-5,7-dimethyl-3,4-dihydrospiro[chromene-2,1′-cyclobutan]-6-ol] | < 10 µM | – |
| Cc1c(C)c2c(c(C)c1O)C(O)C1(CCC1)CO2 (stereo not drawn) [5,7,8-trimethylspiro[chroman-3,1′-cyclobutane]-4,6-diol] | < 10 µM | < 0.3 µM |
| CCc1cc2c(c(CC)c1O)CCC1(CCC1)O2 [5,7-diethyl-3,4-dihydrospiro[chromene-2,1′-cyclobutan]-6-ol] | < 10 µM | < 0.3 µM |
| Cc1cc2c(c(C)c1O)C(O)CC1(CCC1)O2 (stereo not drawn) [5,7-dimethyl-3,4-dihydrospiro[chromene-2,1′-cyclobutane]-4,6-diol] | < 10 µM | – |
| Cc1cc2c(c(C)c1O)C(O)C1(CCC1)CO2 (stereo not drawn) [5,7-dimethyl-4H-spiro[chromene-3,1′-cyclobutane]-4,6-diol] | < 10 µM | – |
| CC(C)=CCC/C(C)=C/Cc1c(O)c(C)c(C)c2c1CCC1(CCC1)O2 [5-(3,7-dimethylocta-2,6-dienyl)-7,8-dimethylspiro[chroman-2,1′-cyclobutan]-6-ol] | < 10 µM | < 0.3 µM |
| CCc1c(O)c(C)cc2c1C(NOC)CC1(CCC1)O2 (stereo not drawn) [5-ethyl-4-(methoxyamino)-7-methyl-3,4-dihydrospiro[chromene-2,1′-cyclobutan]-6-ol] | < 10 µM | < 0.3 µM |
| CCc1c(O)c(C(C)C)cc2c1C(O)CC1(CCC1)O2 (stereo not drawn) [5-ethyl-7-isopropylspiro[chroman-2,1′-cyclobutane]-4,6-diol] | < 10 µM | – |
| CCc1cc2c(c(C)c1O)C(NOC)CC1(CCC1)O2 (stereo not drawn) [7-ethyl-4-(methoxyamino)-5-methyl-3,4-dihydrospiro[chromene-2,1′-cyclobutan]-6-ol] | < 10 µM | < 0.3 µM |
| CONC1CC2(CCC2)Oc2cc(C(C)C)c(O)c(C)c21 (stereo not drawn) [7-isopropyl-4-(methoxyamino)-5-methyl-3,4-dihydrospiro[chromene-2,1′-cyclobutan]-6-ol] | < 10 µM | < 0.3 µM |
| COC1CC2(CCC2)Oc2cc(C(C)C)c(O)c(C)c21 (stereo not drawn) [7-isopropyl-4-methoxy-5-methylspiro[chroman-2,1′-cyclobutan]-6-ol] | < 10 µM | < 0.3 µM |
| Cc1c(O)c(C(C)C)cc2c1C(O)CC1(CCC1)O2 (stereo not drawn) [7-isopropyl-5-methylspiro[chroman-2,1′-cyclobutane]-4,6-diol] | < 10 µM | < 0.3 µM |
| Cc1c(O)c(C(C)C)c(CO)c2c1CCC1(CCC1)O2 [8-(hydroxymethyl)-7-isopropyl-5-methylspiro[chroman-2,1′-cyclobutan]-6-ol] | < 10 µM | < 0.3 µM |
| CCc1cc2c(c(CC)c1O)[C@H](O)CC1(CCC1)O2 [(R)-5,7-diethylspiro[chroman-2,1′-cyclobutane]-4,6-diol] | < 10 µM | < 0.3 µM |
| Cc1c(O)c(C(C)C)cc2c1[C@H](O)CC1(CCC1)O2 [(R)-7-isopropyl-5-methylspiro[chroman-2,1′-cyclobutane]-4,6-diol] | < 10 µM | < 0.3 µM |
| CCc1cc2c(c(CC)c1O)[C@@H](O)CC1(CCC1)O2 [(S)-5,7-diethylspiro[chroman-2,1′-cyclobutane]-4,6-diol] | < 10 µM | < 0.3 µM |
| Cc1c(O)c(C(C)C)cc2c1[C@@H](O)CC1(CCC1)O2 [(S)-7-isopropyl-5-methylspiro[chroman-2,1′-cyclobutane]-4,6-diol] | < 10 µM | < 0.3 µM |
| CCc1c(O)c(CC)c2c(c1CO)OC1(CCC1)CC2 [(Z)-5,7-diethyl-8-(hydroxymethyl)-3,4-dihydrospiro[chromene-2,1′-cyclobutan]-6-ol] | < 10 µM | < 0.3 µM |
